Active and inactive are the calls of the source. The rule behind the calls is not given here.
How the values were obtained:
[1] = biological target: T1, Sphingosine kinase 2 (Homo sapiens) (UniProt Q9NRA0); test: Inhibition of sphingosine kinase 2 at 10 uM
T1 sequence (whole entry): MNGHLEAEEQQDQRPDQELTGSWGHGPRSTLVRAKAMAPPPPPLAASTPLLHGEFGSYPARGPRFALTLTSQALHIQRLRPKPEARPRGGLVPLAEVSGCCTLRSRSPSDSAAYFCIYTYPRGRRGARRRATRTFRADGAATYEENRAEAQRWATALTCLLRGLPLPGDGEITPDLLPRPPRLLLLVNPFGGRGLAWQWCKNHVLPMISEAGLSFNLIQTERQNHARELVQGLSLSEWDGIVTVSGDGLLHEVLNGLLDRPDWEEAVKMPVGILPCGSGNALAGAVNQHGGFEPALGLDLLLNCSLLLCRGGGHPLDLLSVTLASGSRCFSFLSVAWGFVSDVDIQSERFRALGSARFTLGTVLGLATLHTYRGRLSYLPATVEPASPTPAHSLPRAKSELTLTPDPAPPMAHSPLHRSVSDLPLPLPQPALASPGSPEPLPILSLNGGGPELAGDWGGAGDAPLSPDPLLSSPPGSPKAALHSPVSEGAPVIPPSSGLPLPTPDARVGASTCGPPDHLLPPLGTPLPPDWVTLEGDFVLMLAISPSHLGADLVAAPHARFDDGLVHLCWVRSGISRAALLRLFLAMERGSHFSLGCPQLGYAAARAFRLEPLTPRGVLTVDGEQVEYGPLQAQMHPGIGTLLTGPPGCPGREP

Sphingosine kinase 1 = Sphingosine kinase 1 (Homo sapiens, UniProt Q9NYA1); test: Inhibition of human sphingosine kinase 1 by off chip mobility shift assay
Chain of Sphingosine kinase 1 (Q9NYA1 whole entry): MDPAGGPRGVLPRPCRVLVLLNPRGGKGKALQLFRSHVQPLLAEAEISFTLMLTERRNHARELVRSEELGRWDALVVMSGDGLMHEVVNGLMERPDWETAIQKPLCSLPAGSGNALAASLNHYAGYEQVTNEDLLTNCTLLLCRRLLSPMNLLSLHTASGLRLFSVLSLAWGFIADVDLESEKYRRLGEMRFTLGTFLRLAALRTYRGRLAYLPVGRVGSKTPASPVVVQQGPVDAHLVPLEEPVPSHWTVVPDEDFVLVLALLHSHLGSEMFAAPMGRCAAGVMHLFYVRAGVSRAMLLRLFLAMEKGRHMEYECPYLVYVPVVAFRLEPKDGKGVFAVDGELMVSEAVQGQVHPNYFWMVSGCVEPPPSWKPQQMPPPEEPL

Row | SMILES | inhibition [1] | IC50 (Sphingosine kinase 1) [µM]
1 | CCCCCCCCc1ccc(NC(=O)[C@@H](N)[C@H](C)O)cc1 | inactive | 
2 | CCCCCCCCc1ccc(NC(=O)[C@@H](N)CO)cc1 | inactive | 
3 | CCCCCCCCc1ccc(NC[C@@H](N)CO)cc1 | inactive | 
4 | CCCCCCCCc1ccc(NC(=O)C(N)CCCO)cc1 (racemic) | inactive | > 10
5 | CCCCCCCCc1ccc(NC(=O)[C@@H](N)[C@@H](C)O)cc1 | inactive | 0.65
6 | CCCCCCCCc1ccc(NCC(N)CCO)cc1 (configuration not stated) | inactive | > 10
7 | CCCCCCCCc1ccc(NC(=O)[C@H]2NCC[C@@H]2O)cc1 | inactive | 
8 | CCCCCCCCc1ccc(NC(=O)[C@@H](N)COC)cc1 | inactive | > 10
9 | CCCCCCCCc1ccc(NC(=O)[C@H](N)CCO)cc1 | inactive | 
10 | CCCCCCCCc1ccc(NC(=O)[C@H]2NC[C@@H](O)[C@@H]2O)cc1 | inactive | 8.3
11 | CCCCCCCCc1ccc(NC(=O)[C@H](N)[C@@H](C)O)cc1 | inactive | 
12 | CCCCCCCCc1ccc(NC(=O)[C@H]2NCC[C@H]2O)cc1 | inactive | 
13 | CCCCCCCCc1ccc(NC(=O)[C@H](CO)NC)cc1 | inactive | 
14 | CCCCCCCCc1ccc(NC(=O)C(C)(N)CO)cc1 (racemic) | inactive | > 10

Other lines, results leading:

Row | inhibition [1] | IC50 (Sphingosine kinase 1) [µM] | SMILES
15 | inactive |  | CCCCCCCCc1ccc(NC(=O)[C@@H](N)[C@@H](O)CC)cc1 (racemic)
16 | inactive |  | CCCCCCCCc1ccc(NC[C@H]2NCC[C@@H]2O)cc1
17 | inactive |  | CCCCCCCCc1ccc(NC(=O)[C@@H](N)CCO)cc1
18 | inactive |  | CCCCCCCCc1ccc(CNC(=O)C(N)CCO)cc1 (racemic)
19 | inactive |  | CCCCCCCCc1ccc(NC(=O)C(N)CCO)cc1 (racemic)
20 | inactive |  | CCCCCCCCc1ccc(NC(=O)[C@@H](N)CCCCO)cc1
21 | inactive | 6.2 | CCCCCCCCc1ccc(CCNC(=O)[C@H]2NCC[C@@H]2O)cc1
22 | inactive | 0.43 | CCCCCCCCc1ccc(CNC(=O)[C@H]2NCC[C@@H]2O)cc1
23 | inactive | > 10 | CCCCCCCCc1ccc(CNC(=O)C(N)CO)cc1 (racemic)
24 | inactive |  | CCCCCCCCc1ccc(NC(=O)[C@H](N)CO)cc1
25 | inactive |  | CCCCCCCCCCCCC/C=C/[C@@H](O)[C@H](CO)N(C)C
26 | inactive | 2.1 | CCCCCCCCc1ccc(NC(=O)C(N)C(C)(C)O)cc1 (racemic)
27 | inactive |  | CCCCCCCCc1ccc(NC(=O)[C@H](N)[C@H](C)O)cc1
